Measurements published in paper PMC9668928, “Zandelisib (ME-401) in Japanese patients with relapsed or refractory indolent non-Hodgkin’s lymphoma: an open-label, multicenter, dose-escalation phase 1 study” (International Journal of Hematology, 2022).

System: Japanese patients with R/R iNHL
Assay: Phase 1 dose-escalation study: safety and tolerability (TEAEs, DLTs)
Assay type: in vivo
Description: Japanese patients aged ≥ 20 years with R/R iNHL histologically confirmed as FL, nodal MZL, extra-nodal MZL of mucosa-associated lymphoid tissue, small lymphocytic lymphoma, lymphoplasmacytic lymphoma, Waldenström’s macroglobulinemia, or equivalent, according to World Health Organization classification, were eligible for this study. Other key eligibility criteria included being PI3K inhibitor therapy-naïve and an Eastern Cooperative Oncology Group performance status of 0 or 1. Further details of inclusion and exclusion criteria are provided in Supplementary Table 1.
This was a multicenter, open-label, dose-escalation, phase 1 study in Japan. All patients received oral zandelisib once daily at the same time each day, at least 1 h before or 2 h after a meal (CS: continuous schedule). Each treatment cycle was 28 days. Definitions of the DLTs described in this study can be found in Supplementary Table 2. The observation period for DLTs was from day 1 of Cycle 1 to day 1 of Cycle 2. Zandelisib was administered until disease progression or unacceptable toxicity. In the event of an AE, patients could be switched to IDT. In the case of disease progression while receiving IDT, patients could be switched back to CS per the investigator’s discretion.
A starting dose of 45 mg was set for investigating patient safety. This study adopted a standard 3 + 3 design. […] If DLTs occurred in 2 or more patients, the study was planned to be suspended pending a safety evaluation. If a DLT occurred in 1 patient, 3 further patients were added to cohort 1. If DLTs occurred in 0/3 or 1/6 patients in cohort 1, dosing in cohort 2 commenced (n = 6; 60 mg/day). If the incidence of DLTs in cohort 2 was ≤ 1/6, the maximum tolerated dose was not determined, and the dose in cohort 2 was to be selected as the recommended Japanese phase 2 dose.
The primary endpoint was the safety [number of patients with treatment-emergent adverse events (TEAEs), based on Common Terminology Criteria for Adverse Events version 5.0] and tolerability (including laboratory values, vital signs, and electrocardiogram performance) of zandelisib in Japanese patients. Hepatobiliary disorder, aspartate/alanine (AST/ALT) increased, diarrhea/colitis, organizing pneumonia, stomatitis, or rash were defined as irAEs in this manuscript. Secondary endpoints included PK (plasma concentrations and PK parameters) and the efficacy of zandelisib. […] The PK parameters for Cycle 1 day 1 and Cycle 2 day 1 were calculated for each patient by non-compartmental analysis. PK parameters included maximum plasma drug concentration (Cmax), area under the plasma concentration–time curve (AUC) from time zero to the last measurable point (AUC0–t), the AUC from time zero to infinity (AUC0-inf), and terminal half-life (t1/2).

Compound: CN1CCC(c2ccccc2CC(C)(C)Nc2nc(N3CCOCC3)nc(-n3c(C(F)F)nc4ccccc43)n2)CC1 [zandelisib]
- Grade 3 irAEs (45 mg): 2 patients
- deaths (45 mg and 60 mg): no deaths were observed
- TEAE ALT increased, All grades (45 mg, n = 3): 2 (66.7) n (%)
- TEAE ALT increased, Grade ≥ 3 (45 mg, n = 3): 0 n (%)
- TEAE AST increased, All grades (45 mg, n = 3): 2 (66.7) n (%)
- TEAE AST increased, Grade ≥ 3 (45 mg, n = 3): 0 n (%)
- TEAE Abdominal discomfort, All grades (45 mg, n = 3): 0 n (%)
- TEAE Abdominal discomfort, Grade ≥ 3 (45 mg, n = 3): 0 n (%)
- TEAE Abdominal pain upper, All grades (45 mg, n = 3): 1 (33.3) n (%)
- TEAE Abdominal pain upper, Grade ≥ 3 (45 mg, n = 3): 0 n (%)
- TEAE Amylase increased, All grades (45 mg, n = 3): 1 (33.3) n (%)
- TEAE Amylase increased, Grade ≥ 3 (45 mg, n = 3): 0 n (%)
- TEAE Anemia, All grades (45 mg, n = 3): 1 (33.3) n (%)
- TEAE Anemia, Grade ≥ 3 (45 mg, n = 3): 0 n (%)
- TEAE Arthralgia, All grades (45 mg, n = 3): 1 (33.3) n (%)
- TEAE Arthralgia, Grade ≥ 3 (45 mg, n = 3): 0 n (%)
- TEAE Back pain, All grades (45 mg, n = 3): 1 (33.3) n (%)
- TEAE Back pain, Grade ≥ 3 (45 mg, n = 3): 0 n (%)
- TEAE Blepharitis, All grades (45 mg, n = 3): 0 n (%)
- TEAE Blepharitis, Grade ≥ 3 (45 mg, n = 3): 0 n (%)
- TEAE Blood and lymphatic system disorders (SOC), All grades (45 mg, n = 3): 1 (33.3) n (%)
- TEAE Blood and lymphatic system disorders (SOC), Grade ≥ 3 (45 mg, n = 3): 0 n (%)
- TEAE Blood creatinine increased, All grades (45 mg, n = 3): 0 n (%)
- TEAE Blood creatinine increased, Grade ≥ 3 (45 mg, n = 3): 0 n (%)
- TEAE Bradycardia, All grades (45 mg, n = 3): 1 (33.3) n (%)
- TEAE Bradycardia, Grade ≥ 3 (45 mg, n = 3): 0 n (%)
- TEAE CMV test positive, All grades (45 mg, n = 3): 1 (33.3) n (%)
- TEAE CMV test positive, Grade ≥ 3 (45 mg, n = 3): 0 n (%)
- TEAE Cardiac disorders (SOC), All grades (45 mg, n = 3): 1 (33.3) n (%)
- TEAE Cardiac disorders (SOC), Grade ≥ 3 (45 mg, n = 3): 0 n (%)
- TEAE Conjunctivitis, All grades (45 mg, n = 3): 1 (33.3) n (%)
- TEAE Conjunctivitis, Grade ≥ 3 (45 mg, n = 3): 0 n (%)
- TEAE Constipation, All grades (45 mg, n = 3): 2 (66.7) n (%)
- TEAE Constipation, Grade ≥ 3 (45 mg, n = 3): 0 n (%)
- TEAE Cough, All grades (45 mg, n = 3): 0 n (%)
- TEAE Cough, Grade ≥ 3 (45 mg, n = 3): 0 n (%)
- TEAE Cytomegalovirus viremia, All grades (45 mg, n = 3): 1 (33.3) n (%)
- TEAE Decreased appetite, All grades (45 mg, n = 3): 1 (33.3) n (%)
- TEAE Decreased appetite, Grade ≥ 3 (45 mg, n = 3): 1 (33.3) n (%)
- TEAE Diarrhea, All grades (45 mg, n = 3): 2 (66.7) n (%)
- TEAE Diarrhea, Grade ≥ 3 (45 mg, n = 3): 1 (33.3) n (%)
- TEAE Drug hypersensitivity, All grades (45 mg, n = 3): 0 n (%)
- TEAE Drug hypersensitivity, Grade ≥ 3 (45 mg, n = 3): 0 n (%)
- TEAE Drug-induced liver injury, All grades (45 mg, n = 3): 0 n (%)
- TEAE Drug-induced liver injury, Grade ≥ 3 (45 mg, n = 3): 0 n (%)
- TEAE Dry eye, All grades (45 mg, n = 3): 1 (33.3) n (%)
- TEAE Dry eye, Grade ≥ 3 (45 mg, n = 3): 0 n (%)
- TEAE Dry skin, All grades (45 mg, n = 3): 1 (33.3) n (%)
- TEAE Dry skin, Grade ≥ 3 (45 mg, n = 3): 0 n (%)
- TEAE Dysgeusia, All grades (45 mg, n = 3): 1 (33.3) n (%)
- TEAE Dysgeusia, Grade ≥ 3 (45 mg, n = 3): 0 n (%)
- TEAE Dyspnea, All grades (45 mg, n = 3): 1 (33.3) n (%)
- TEAE Dyspnea, Grade ≥ 3 (45 mg, n = 3): 1 (33.3) n (%)
- TEAE Ear and labyrinth disorders (SOC), All grades (45 mg, n = 3): 1 (33.3) n (%)
- TEAE Ear and labyrinth disorders (SOC), Grade ≥ 3 (45 mg, n = 3): 0 n (%)
- TEAE Eczema, All grades (45 mg, n = 3): 0 n (%)
- TEAE Eczema, Grade ≥ 3 (45 mg, n = 3): 0 n (%)
- TEAE Eosinophil count increased, All grades (45 mg, n = 3): 1 (33.3) n (%)
- TEAE Eosinophil count increased, Grade ≥ 3 (45 mg, n = 3): 0 n (%)
- TEAE Erythema multiforme, All grades (45 mg, n = 3): 0 n (%)
- TEAE Erythema multiforme, Grade ≥ 3 (45 mg, n = 3): 0 n (%)
- TEAE Eye disorders (SOC), All grades (45 mg, n = 3): 1 (33.3) n (%)
- TEAE Eye disorders (SOC), Grade ≥ 3 (45 mg, n = 3): 0 n (%)
- TEAE Flank pain, All grades (45 mg, n = 3): 0 n (%)
- TEAE Flank pain, Grade ≥ 3 (45 mg, n = 3): 0 n (%)
- TEAE GGT increased, All grades (45 mg, n = 3): 0 n (%)
- TEAE GGT increased, Grade ≥ 3 (45 mg, n = 3): 0 n (%)
- TEAE Gastrointestinal disorders (SOC), All grades (45 mg, n = 3): 2 (66.7) n (%)
- TEAE Gastrointestinal disorders (SOC), Grade ≥ 3 (45 mg, n = 3): 2 (66.7) n (%)
- TEAE General disorders and administration site conditions (SOC), All grades (45 mg, n = 3): 1 (33.3) n (%)
- TEAE General disorders and administration site conditions (SOC), Grade ≥ 3 (45 mg, n = 3): 0 n (%)
- TEAE Hepatic function abnormal, All grades (45 mg, n = 3): 1 (33.3) n (%)
- TEAE Hepatic function abnormal, Grade ≥ 3 (45 mg, n = 3): 0 n (%)
- TEAE Hepatobiliary disorders (SOC), All grades (45 mg, n = 3): 1 (33.3) n (%)
- TEAE Hepatobiliary disorders (SOC), Grade ≥ 3 (45 mg, n = 3): 0 n (%)
- TEAE Herpes simplex, All grades (45 mg, n = 3): 1 (33.3) n (%)
- TEAE Herpes simplex, Grade ≥ 3 (45 mg, n = 3): 0 n (%)
- TEAE Herpes zoster, All grades (45 mg, n = 3): 0 n (%)
- TEAE Herpes zoster, Grade ≥ 3 (45 mg, n = 3): 0 n (%)
- TEAE Hypoesthesia, All grades (45 mg, n = 3): 1 (33.3) n (%)
- TEAE Hypoesthesia, Grade ≥ 3 (45 mg, n = 3): 0 n (%)
- TEAE Hypogammaglobulinemia, All grades (45 mg, n = 3): 2 (66.7) n (%)
- TEAE Hypogammaglobulinemia, Grade ≥ 3 (45 mg, n = 3): 0 n (%)
- TEAE Immune system disorders (SOC), All grades (45 mg, n = 3): 2 (66.7) n (%)
- TEAE Immune system disorders (SOC), Grade ≥ 3 (45 mg, n = 3): 0 n (%)
- TEAE Infections and infestations (SOC), All grades (45 mg, n = 3): 2 (66.7) n (%)
- TEAE Infections and infestations (SOC), Grade ≥ 3 (45 mg, n = 3): 0 n (%)
- TEAE Infusion site extravasation, All grades (45 mg, n = 3): 1 (33.3) n (%)
- TEAE Infusion site extravasation, Grade ≥ 3 (45 mg, n = 3): 0 n (%)
- TEAE Insomnia, All grades (45 mg, n = 3): 1 (33.3) n (%)
- TEAE Insomnia, Grade ≥ 3 (45 mg, n = 3): 0 n (%)
- TEAE Investigations (SOC), All grades (45 mg, n = 3): 3 (100.0) n (%)
- TEAE Investigations (SOC), Grade ≥ 3 (45 mg, n = 3): 2 (66.7) n (%)
- TEAE Joint effusion, All grades (45 mg, n = 3): 1 (33.3) n (%)
- TEAE Joint effusion, Grade ≥ 3 (45 mg, n = 3): 0 n (%)
- TEAE Lymphocyte count decreased, All grades (45 mg, n = 3): 2 (66.7) n (%)
- TEAE Lymphocyte count decreased, Grade ≥ 3 (45 mg, n = 3): 1 (33.3) n (%)
- TEAE Metabolism and nutrition disorders (SOC), All grades (45 mg, n = 3): 1 (33.3) n (%)
- TEAE Metabolism and nutrition disorders (SOC), Grade ≥ 3 (45 mg, n = 3): 1 (33.3) n (%)
- TEAE Muscle spasms, All grades (45 mg, n = 3): 1 (33.3) n (%)
- TEAE Muscle spasms, Grade ≥ 3 (45 mg, n = 3): 0 n (%)
- TEAE Musculoskeletal and connective tissue disorders (SOC), All grades (45 mg, n = 3): 2 (66.7) n (%)
- TEAE Musculoskeletal and connective tissue disorders (SOC), Grade ≥ 3 (45 mg, n = 3): 0 n (%)
- TEAE Nasopharyngitis, All grades (45 mg, n = 3): 2 (66.7) n (%)
- TEAE Nasopharyngitis, Grade ≥ 3 (45 mg, n = 3): 0 n (%)
- TEAE Nausea, All grades (45 mg, n = 3): 1 (33.3) n (%)
- TEAE Nausea, Grade ≥ 3 (45 mg, n = 3): 0 n (%)
- TEAE Nervous system disorders (SOC), All grades (45 mg, n = 3): 1 (33.3) n (%)
- TEAE Nervous system disorders (SOC), Grade ≥ 3 (45 mg, n = 3): 0 n (%)
- TEAE Neutrophil count decreased, All grades (45 mg, n = 3): 2 (66.7) n (%)
- TEAE Neutrophil count decreased, Grade ≥ 3 (45 mg, n = 3): 1 (33.3) n (%)
- TEAE Oral herpes, All grades (45 mg, n = 3): 1 (33.3) n (%)
- TEAE Oral herpes, Grade ≥ 3 (45 mg, n = 3): 0 n (%)
- TEAE Organizing pneumonia, All grades (45 mg, n = 3): 1 (33.3) n (%)
- TEAE Organizing pneumonia, Grade ≥ 3 (45 mg, n = 3): 1 (33.3) n (%)
- TEAE Oropharyngeal pain, All grades (45 mg, n = 3): 0 n (%)
